What all share (test): normalised response (% of control), CellTox Green; higher = less cell death (100 = DMSO, 0 = benzethonium chloride kill control)
Common to all, as to conditions: incubation time: 72 h

For one test, the system named is CAL-148. In a few lines:
(§1)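 CellTox Green fluorescence (485/520 nm) and, after 10 min at room temperature, CellTiter-Glo luminescence were read from breast cancer cell lines incubated 72 h in 384-well plates. Cells were seeded as 20 µl suspension onto compound at 5 concentrations in 10-fold steps over a 10,000-fold range chosen per compound. Each plate was normalised to 0.1 % DMSO (100) and a positive kill control (0). Values are normalised signals, one per concentration.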

Another test relates to CAL-85-1. In a few lines:
as §1

A further test has as its system DU-4475. Summed up: as §1
Another test relates to HCC1143. Summed up:
as §1

The next test deals with HCC1599. Summed up:
as §1

For the next test, the system named is HCC1937. In a few lines: as §1
The test system of another test is MCF-10A. In a few lines: as §1
For another test, the system named is MDA-MB-231. Summed up:
as §1

The test system of a further test is MDA-MB-436. Summed up:
as §1

The subject of another test is MDA-MB-468. In a few lines: as §1
The subject of another test is MFM-223. Summed up:
as §1

For `C=C(c1ccc(C(=O)O)cc1)c1cc2c(cc1C)C(C)(C)CCC2(C)C` [Bexarotene] (10000 nM), the normalised response with CAL-148 was determined as 97.9%; in the test with CAL-85-1, 79.7%; in the test on DU-4475, 101%; in the test on HCC1143, 114%; in the test on HCC1599 it was 108%; with HCC1937, 105%. In addition, the normalised response in the test with MCF-10A was found to be 93.8%; in the test on MDA-MB-231, 108%; in the test with MDA-MB-436, 78.6%; in the test on MDA-MB-468 it was 121%; with MFM-223, 74.1%.

Consider `CCC1=C[C@@H]2CN(C1)Cc1c([nH]c3ccccc13)[C@@](C(=O)OC)(c1cc3c(cc1OC)N(C)[C@H]1[C@@](O)(C(=O)OC)[C@H](OC(C)=O)[C@]4(CC)C=CCN5CC[C@]31[C@@H]54)C2` [Vinorelbine] (1000 nM), for which the normalised response in the test with CAL-148 came to 54.8%; in the test on CAL-85-1 it was 68.7%; with DU-4475 it was 96.7%; in the test with HCC1143 it was 104%; with HCC1599, 79.5%; with HCC1937 it was 92.5%. The normalised response in the test with MCF-10A is 26.6%; with MDA-MB-231, 20.9%; with MDA-MB-436 it was 76.9%; in the test on MDA-MB-468, 98.1%; in the test on MFM-223, 55.2%.

On to `CCC1(c2ccc(N)cc2)CCC(=O)NC1=O` (configuration not stated) [Aminoglutethimide] (10000 nM), for which the normalised response came to 97% in the test on CAL-148; 89.5% in the test with CAL-85-1; 95.9% in the test with DU-4475; 59.1% with HCC1143; 101% in the test with HCC1599; 110% with HCC1937. Further, the normalised response came out at 102% in the test with MCF-10A; 112% with MDA-MB-231; 91.5% in the test with MDA-MB-436; 69% in the test with MDA-MB-468; 102% in the test with MFM-223.

With `O=C1CCC(N2C(=O)c3ccccc3C2=O)C(=O)N1` (configuration not stated) [Thalidomide] (1000 nM), the normalised response is 97.4% with CAL-148; 108% in the test on CAL-85-1; 98.5% in the test on DU-4475; 99% in the test with HCC1143; 98.2% with HCC1599; 99% in the test with HCC1937. Also, the normalised response in the test on MDA-MB-231 turned out to be 63.5%; with MDA-MB-436, 109%; with MDA-MB-468, 130%; with MFM-223, 100%.

With `CN(N=O)C(=O)N[C@@H](C=O)[C@@H](O)[C@H](O)[C@H](O)CO` [Streptozocin] (1000 nM), the normalised response stood at 110% in the test on CAL-85-1; 107% with DU-4475; 113% in the test with HCC1143; 103% with HCC1599; 99.3% with HCC1937; 53.9% with MCF-10A. Besides, the normalised response in the test with MDA-MB-231 is 96.8%; with MDA-MB-436 it was 106%; in the test on MDA-MB-468, 90.8%; with MFM-223, 98.3%.

Turning to `CC1(C)NC(=O)N(c2ccc([N+](=O)[O-])c(C(F)(F)F)c2)C1=O` [Nilutamide] (10000 nM), the normalised response in the test with CAL-148 came to 101%; in the test with CAL-85-1 it was 83.5%; in the test with DU-4475, 104%; in the test with HCC1599 it was 102%; in the test with HCC1937, 92.1%; in the test on MCF-10A, 79.5%. In addition, the normalised response in the test on MDA-MB-231 was determined as 105%; with MDA-MB-436, 102%; in the test with MDA-MB-468, 115%; in the test with MFM-223, 96.2%.

As to `COc1cc2nccc(Oc3ccc(NC(=O)C4(C(=O)Nc5ccc(F)cc5)CC4)cc3)c2cc1OC` [Cabozantinib] (1000 nM), the normalised response in the test with CAL-148 is 96.9%; in the test with CAL-85-1, 104%; with DU-4475, 96.9%; with HCC1143 it was 108%; in the test on HCC1599 it was 94.5%; in the test on HCC1937, 102%. In addition, the normalised response in the test with MDA-MB-231 is 97.1%; with MDA-MB-436 it was 87.1%; with MDA-MB-468, 158%; in the test with MFM-223, 93.8%.

Take `COc1cc([C@@H]2c3cc4c(cc3[C@@H](O[C@@H]3O[C@@H]5CO[C@@H](C)O[C@H]5[C@H](O)[C@H]3O)[C@H]3COC(=O)[C@H]23)OCO4)cc(OC)c1O` [Etoposide] (1000 nM): the normalised response in the test with CAL-148 was determined as 30.9%; with CAL-85-1, 99.6%; with DU-4475 it was 93.7%; in the test on HCC1143 it was 120%; with HCC1599, 97%; with MCF-10A, 110%. Moreover, the normalised response was found to be 13.2% with MDA-MB-436, 102% in the test on MDA-MB-468 and 103% in the test on MFM-223.
